This experiment deals with T1, TRAP1 enzyme (Homo sapiens, UniProt Q12931).
T1 sequence (Q12931 60-704): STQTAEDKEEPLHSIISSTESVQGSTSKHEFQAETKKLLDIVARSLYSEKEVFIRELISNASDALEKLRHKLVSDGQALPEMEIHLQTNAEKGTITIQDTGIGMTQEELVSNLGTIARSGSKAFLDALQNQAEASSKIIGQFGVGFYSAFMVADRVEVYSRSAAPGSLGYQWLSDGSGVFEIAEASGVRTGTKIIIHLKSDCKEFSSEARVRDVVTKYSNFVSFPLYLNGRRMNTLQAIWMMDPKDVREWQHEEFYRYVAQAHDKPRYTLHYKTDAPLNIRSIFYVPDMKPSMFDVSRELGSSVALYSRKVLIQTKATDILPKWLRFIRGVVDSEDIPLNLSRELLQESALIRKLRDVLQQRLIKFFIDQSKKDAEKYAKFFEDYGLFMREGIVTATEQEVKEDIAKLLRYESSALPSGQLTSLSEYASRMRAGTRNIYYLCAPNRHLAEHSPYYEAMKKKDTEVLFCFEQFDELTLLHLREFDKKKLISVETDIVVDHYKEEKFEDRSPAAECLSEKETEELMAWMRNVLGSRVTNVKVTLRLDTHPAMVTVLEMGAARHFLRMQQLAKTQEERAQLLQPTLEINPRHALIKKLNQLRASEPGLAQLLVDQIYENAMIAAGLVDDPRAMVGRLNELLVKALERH
The experiment is described as follows: Malachite green phosphate assay of TRAP1 ATPase activity. Conditions: for EC50: TRAP1 ATPase activation, 150 nM Trap1, 20 μM ATP, geometric mean, read-out: Malachite Green Fluor DRC: GeoMean EC50; for Emax: read-out: Malachite Green Fluor DRC: Mean Emax. In kind it is biochemical. The protocol:
The Potency of test compounds to modulate the ATPase activity of TRAP1 enzyme was evaluated using malachite green phosphatase assay. The assay is based on quantification of the green complex formed between Malachite Green, molybdate and inorganic phosphate generated in the phosphatase reaction. Assays were performed using a Malachite Green assay kit. All the assays were carried out in a 96-well transparent plate. The buffer used was 50 mM HEPES (pH 7.5), 20 mM KCl, 4 mM MgCl2 and 0.05% BSA. 150 nM Trap1 enzyme was incubated with various concentrations of the test compound (0.78 μM-100 μM) at 37° C. for 30 mins. 20 μM ATP was added to each well (except blank wells) to start the reaction and the plate was then incubated at 37° C. for 180 mins. 10 μl of the reaction volume of each sample was then transferred to a white 384-well proxiplate in quadruplets. 2.5 μl of Malachite Green reagent was added to all the wells and the plate was equilibrated for 15 mins. The reaction was stopped by adding 12% H2SO4 and the plate was read for fluorescence at 620 nm (λex=573 nm). The amount of phosphate released was estimated from a phosphate standard curve generated at the same experimental conditions. Emax (Maximal percent activation) and EC50 (concentration of test compound for half maximal activation) were estimated by fitting the dose response data to a sigmoidal curve fitting equation using Graphpad Prism software V.7.0.

Data on 34 compounds can be found in patent publication US20230174523A1, “BENZENESULFONAMIDE DERIVATIVES AS TRAP1 MODULATORS AND USES THEREOF” (Amathus Therapeutics, Inc., priority 2020, published 2023).

Structures are written as SMILES. Where only a bound is given, the exact number is not on record here.

As usually defined, the EC50 is the concentration needed to bring the measured effect to its halfway point. Usually Emax stands for the maximal effect, on the per cent scale that the assay sets. For the compound `COc1ccc(NC(=O)c2oc(C(F)(F)F)nc2C)cc1S(=O)(=O)Nc1ccc(Br)cc1` [Compound 315], the EC50 lay within 10 to 20 µM and the Emax lay in the range of 160 to 199%.

Consider `CCc1ccc(NC(=O)c2ncco2)cc1S(=O)(=O)Nc1ccc(C(F)(F)F)cc1` [Compound 316], for which the EC50 lay in the range of 20 to 100 µM and the maximal effect (Emax) is 200 to 300%.

`CCOC(=O)Cc1ccc(NC(=O)c2cnccc2C)cc1S(=O)(=O)Nc1ccc(C)cc1` [Compound 317]: the 50% effective concentration (EC50) lay within 10 to 20 µM and the maximum response (Emax) is 160 to 199%.

Turning to `Cc1ccc2c(c1)OCCN2S(=O)(=O)c1cccc(NC(=O)c2ncco2)c1` [Compound 324], the EC50 was in the range of 20 to 100 µM and the Emax fell in the range of 200 to 300%.

`CCOC(=O)Cc1ccc(NC(=O)c2ncco2)cc1S(=O)(=O)Nc1ccc(Br)cc1` [Compound 332]: the EC50 was in the range of 20 to 100 µM and the Emax fell in the range of 200 to 300%.

For `O=C(Nc1ccc(CCO)c(S(=O)(=O)Nc2ccc(Br)cc2)c1)c1ncco1` [Compound 333, N-(3-(N-(4-bromophenyl)sulfamoyl)-4-(2-hydroxyethyl)phenyl) oxazole-2-carboxamide], the EC50 lay in the range of 20 to 100 µM and the Emax lay in the range of 160 to 199%.

As to `CN(c1ccc(Br)cc1)S(=O)(=O)c1cc(NC(=O)c2cnc[nH]2)ccc1OCCCCCCO` [Compound 342], the half-maximal effective concentration (EC50) was 20 to 100 µM and the Emax fell in the range of 200 to 300%.

For the compound `COc1ccc(NC(=O)c2nccs2)cc1S(=O)(=O)Nc1ccc(F)cc1` [Compound 345], the EC50 is 20 to 100 µM and the Emax fell in the range of 200 to 300%.

As for `COc1ccc(NC(=O)c2cnc(C(F)(F)F)[nH]2)cc1S(=O)(=O)Nc1ccc(F)cc1C` [Compound 348], the EC50 is 20 to 100 µM and the maximum response (Emax) lay in the range of 200 to 300%.

As to `COc1ccc(NC(=O)c2nccs2)cc1S(=O)(=O)Nc1ccc(Cl)cc1` [Compound 349], the 50% effective concentration (EC50) is 20 to 100 µM and the Emax was 200 to 300%.

Regarding `COc1ccc(NC(=O)c2cnc(C(F)(F)F)[nH]2)cc1S(=O)(=O)Nc1ccc(-c2ccccc2)cc1` [Compound 353], the 50% effective concentration (EC50) lay in the range of 20 to 100 µM and the Emax was 200 to 300%.

In the case of `NCCCCCCOc1ccc(NC(=O)c2cnc[nH]2)cc1S(=O)(=O)Nc1ccc(Br)cc1` [Compound 356, N-(4-((6-aminohexyl)oxy)-3-(N-(4-bromophenyl)sulfamoyl)phenyl)-1H-imidazole-4-carboxamide], the half-maximal effective concentration (EC50) was 20 to 100 µM and the Emax lay in the range of 200 to 300%.

Consider `COc1ccc(NC(=O)c2cnc(C(F)(F)F)[nH]2)cc1S(=O)(=O)Nc1ccc(C(C)(C)C)cc1` [Compound 360], for which the EC50 is 20 to 100 µM and the Emax lay within 200 to 300%.

For `CN(c1ccc(Br)cc1)S(=O)(=O)c1cc(NC(=O)c2cnc[nH]2)ccc1OCCCCCC[P+](c1ccccc1)(c1ccccc1)c1ccccc1` [Compound 363], the EC50 is below 10 µM and the maximal effect (Emax) was above 300%.

As for `COc1ccc(NC(=O)c2cn(C)c(C(F)(F)F)n2)cc1S(=O)(=O)Nc1ccc(Br)cc1` [Compound 364], the half-maximal effective concentration (EC50) lay within 20 to 100 µM and the Emax was in the range of 160 to 199%.

`O=C(Nc1cccc(S(=O)(=O)N2CCOc3cc(Cl)ccc32)c1)c1ncco1` [Compound 367]: the EC50 fell in the range of 20 to 100 µM and the Emax lay within 200 to 300%.

In the case of `COc1ccc(NC(=O)c2cnc(C(F)(F)F)[nH]2)cc1S(=O)(=O)Nc1cccc(C(C)(C)C)c1` [Compound 368], the EC50 is 20 to 100 µM and the Emax was 200 to 300%.

Regarding `COc1ccc(NC(=O)c2ncc(-c3ccccc3)o2)cc1S(=O)(=O)Nc1ccc(Cl)cc1` [Compound 369], the EC50 is below 10 µM and the Emax fell in the range of 160 to 199%.

As for `COc1ccc(NC(=O)c2nc(C(F)(F)F)cs2)cc1S(=O)(=O)Nc1ccc(Br)cc1` [Compound 370, N-(3-(N-(4-bromophenyl)sulfamoyl)-4-methoxyphenyl)-4-(trifluoromethyl) thiazole-2-carboxamide], the concentration for a half-maximal effect (EC50) fell in the range of 20 to 100 µM and the maximal response (Emax) lay in the range of 200 to 300%.

As for `O=C(Nc1cccc(S(=O)(=O)N2CCOc3ccccc32)c1)c1ncco1` [Compound 372], the EC50 is 20 to 100 µM and the Emax is 160 to 199%.

For the compound `O=C(Nc1cccc(S(=O)(=O)N2CCOc3cc(F)ccc32)c1)c1ncco1` [Compound 377], the concentration giving a half-maximal response (EC50) lay within 20 to 100 µM and the maximal effect (Emax) fell in the range of 160 to 199%.

Turning to `COc1ccc(NC(=O)c2cnc(-c3ccccc3)[nH]2)cc1S(=O)(=O)Nc1ccc(N=[N+]=[N-])cc1` [Compound 380, N-(3-(N-(4-azidophenyl)sulfamoyl)-4-methoxyphenyl)-2-phenyl-1H-imidazole-5-carboxamide], the EC50 is below 10 µM and the Emax was 160 to 199%.

For `COc1ccc(NC(=O)c2cnc[nH]2)cc1S(=O)(=O)Nc1ccc(C(C2N=N2)C(F)(F)F)cc1` (centres unmarked) [Compound 398], the EC50 was 20 to 100 µM and the Emax was 123 to 159%.

Consider `COc1ccc(NC(=O)c2cnc(-c3ccccc3)[nH]2)cc1S(=O)(=O)Nc1ccc(Cl)cc1` [Compound 404], for which the half-maximal effective concentration (EC50) was below 10 µM and the maximal effect (Emax) is 160 to 199%.

In the case of `Cc1ccc2c(c1)CCN2S(=O)(=O)c1cccc(NC(=O)c2ocnc2C)c1` [Compound 407], the EC50 lay within 20 to 100 µM and the maximal response (Emax) was in the range of 200 to 300%.

Consider `COc1ccc(NC(=O)c2cnc(-c3ccc(Cl)cc3)[nH]2)cc1S(=O)(=O)Nc1ccc(Br)cc1` [Compound 415], for which the 50% effective concentration (EC50) was below 10 µM and the Emax lay within 123 to 159%.

Take `COc1ccc(-c2ncc(C(=O)Nc3ccc(OC)c(S(=O)(=O)Nc4ccc(Br)cc4)c3)[nH]2)cc1` [Compound 417]: the 50% effective concentration (EC50) is below 10 µM and the Emax lay in the range of 123 to 159%.

On to `COc1ccc(NC(=O)c2ncc(-c3ccccc3)o2)cc1S(=O)(=O)Nc1c(C)cccc1C` [Compound 423], for which the EC50 is below 10 µM and the Emax is 160 to 199%.

As to `COc1ccc(NC(=O)c2nnc(-c3ccccc3)o2)cc1S(=O)(=O)Nc1ccc(Cl)cc1` [Compound 424], the EC50 was below 10 µM and the Emax was 123 to 159%.

Turning to `Cc1ncoc1C(=O)Nc1cccc(S(=O)(=O)N2CCCc3cc(Cl)ccc32)c1` [Compound 429], the EC50 is 10 to 20 µM and the Emax fell in the range of 200 to 300%.

Regarding `COc1ccc(NC(=O)c2cnc(C(F)(F)F)[nH]2)cc1S(=O)(=O)N(CCCCN1CCOCC1)c1ccc(Br)cc1` [Compound 430, N-(3-(N-(4-bromophenyl)-N-(4-morpholinobutyl)sulfamoyl)-4-methoxyphenyl)-2-(trifluoromethyl)-1H-imidazole-5-carboxamide], the EC50 lay in the range of 20 to 100 µM and the Emax lay in the range of 200 to 300%.

Turning to `COc1ccc(NC(=O)c2cnc(C(F)(F)F)[nH]2)cc1S(=O)(=O)N(CCCCCO)c1ccc(Br)cc1` [Compound 431, N-(3-(N-(4-bromophenyl)-N-(5-hydroxypentyl)sulfamoyl)-4-methoxyphenyl)-2-(trifluoromethyl)-1H-imidazole-5-carboxamide], the EC50 was 20 to 100 µM and the Emax is above 300%.

Take `COc1ccc(NC(=O)c2cnc(C(F)(F)F)[nH]2)cc1S(=O)(=O)N(CCCCCN1CCOCC1)c1ccc(Br)cc1` [Compound 433]: the EC50 was 10 to 20 µM and the maximum response (Emax) lay within 123 to 159%.

Consider `Cc1cccc(C)c1NS(=O)(=O)c1cc(NC(=O)c2cnc(-c3ccccc3)[nH]2)ccc1F` [Compound 436], for which the EC50 was below 10 µM and the maximum response (Emax) is 160 to 199%.
